Measured values from the supplement of paper PMC13207355.

Legend:
Conditions in all cases: exposure time: 72 h
E28 [1] = patient-derived glioblastoma stem cells of classical subtype; test: surviving fraction (nuclei count normalised to DMSO); higher = more cells surviving (less toxic)
E57 [2] = patient-derived glioblastoma stem cells of mesenchymal subtype; test: as above
FT3469 [3] = normal neural stem cell line; test: as above
E34 [4] = patient-derived glioblastoma stem cells of proneural subtype; test: as above
E13 [5] = patient-derived glioblastoma stem cells of classical subtype; test: as above
E21 [6] = patient-derived glioblastoma stem cells of mesenchymal subtype; test: as above
E31 [7] = patient-derived glioblastoma stem cells of proneural subtype; test: as above
E28 [8] = test: phenotypic distance (Euclidean, principal components) from DMSO controls (arbitrary units); higher = stronger morphological change
E57 [9] = test: as above
FT3469 [10] = test: as above
E34 [11] = test: as above
E13 [12] = test: as above
E21 [13] = test: as above
E31 [14] = test: as above
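Wherever phenotypic distance (Euclidean, principal components) from DMSO controls is given: cell Painting imaging in 384-well plates, CellProfiler features reduced to at least 20 principal components, Euclidean distance versus same-plate DMSO vehicle wells (0.1% v/v), median over six images per well.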
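Wherever surviving fraction (nuclei count normalised to DMSO) is given: nuclei counted by high-content imaging of Hoechst-stained cells in laminin-coated 384-well plates, relative to 0.1% DMSO vehicle wells, with staurosporine as cell-death control.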

CN(C(=O)CN(CCO)CC(=O)N(C)C(C)(C)Cc1ccccc1)C(C)(C)Cc1ccccc1 [Oxethazaine]
Conditions | phenotypic distance | surviving fraction
E13 [5], 4.1 nM | – | 1.09
E13 [5], 12.3 nM | – | 0.968
E13 [5], 37 nM | – | 0.928
E13 [5], 111.1 nM | – | 1.04
E13 [5], 333.3 nM | – | 1.07
E13 [5], 1000 nM | – | 0.99
E13 [5], 3000 nM | – | 0.951
E13 [12], 4.1 nM | 0.675 | –
E13 [12], 12.3 nM | 0.799 | –
E13 [12], 37 nM | 3.23 | –
E13 [12], 111.1 nM | 0.762 | –
E13 [12], 333.3 nM | 0.641 | –
E13 [12], 1000 nM | 3.59 | –
E13 [12], 3000 nM | 0.501 | –
E21 [6], 4.1 nM | – | 0.958
E21 [6], 12.3 nM | – | 1
E21 [6], 37 nM | – | 1.03
E21 [6], 111.1 nM | – | 0.955
E21 [6], 333.3 nM | – | 1.12
E21 [6], 1000 nM | – | 0.969
E21 [6], 3000 nM | – | 1.08
E21 [13], 4.1 nM | 1.27 | –
E21 [13], 12.3 nM | 0.301 | –
E21 [13], 37 nM | 0.673 | –
E21 [13], 111.1 nM | 0.767 | –
E21 [13], 333.3 nM | 0.702 | –
E21 [13], 1000 nM | 0.599 | –
E21 [13], 3000 nM | 0.942 | –
E28 [1], 4.1 nM | – | 1.08
E28 [1], 12.3 nM | – | 0.989
E28 [1], 37 nM | – | 1.05
E28 [1], 111.1 nM | – | 0.943
E28 [1], 333.3 nM | – | 1.15
E28 [1], 1000 nM | – | 1
E28 [1], 3000 nM | – | 1.16
E28 [8], 4.1 nM | 0.766 | –
E28 [8], 12.3 nM | 0.639 | –
E28 [8], 37 nM | 0.581 | –
E28 [8], 111.1 nM | 0.521 | –
E28 [8], 333.3 nM | 0.535 | –
E28 [8], 1000 nM | 0.928 | –
E28 [8], 3000 nM | 0.763 | –
E31 [7], 4.1 nM | – | 0.961
E31 [7], 12.3 nM | – | 0.975
E31 [7], 37 nM | – | 1.03
E31 [7], 111.1 nM | – | 0.93
E31 [7], 333.3 nM | – | 1.09
E31 [7], 1000 nM | – | 1.01
E31 [7], 3000 nM | – | 1.01
E31 [14], 4.1 nM | 1.19 | –
E31 [14], 12.3 nM | 0.518 | –
E31 [14], 37 nM | 0.559 | –
E31 [14], 111.1 nM | 0.664 | –
E31 [14], 333.3 nM | 0.743 | –
E31 [14], 1000 nM | 0.675 | –
E31 [14], 3000 nM | 1.16 | –
E34 [4], 4.1 nM | – | 1.02
E34 [4], 12.3 nM | – | 0.88
E34 [4], 37 nM | – | 1.05
E34 [4], 111.1 nM | – | 0.971
E34 [4], 333.3 nM | – | 1.19
E34 [4], 1000 nM | – | 1.2
E34 [4], 3000 nM | – | 0.914
E34 [11], 4.1 nM | 0.701 | –
E34 [11], 12.3 nM | 0.608 | –
E34 [11], 37 nM | 0.585 | –
E34 [11], 111.1 nM | 0.716 | –
E34 [11], 333.3 nM | 0.77 | –
E34 [11], 1000 nM | 0.595 | –
E34 [11], 3000 nM | 0.878 | –
E57 [2], 4.1 nM | – | 1.01
E57 [2], 12.3 nM | – | 0.936
E57 [2], 37 nM | – | 0.966
E57 [2], 111.1 nM | – | 0.964
E57 [2], 333.3 nM | – | 0.991
E57 [2], 1000 nM | – | 0.948
E57 [2], 3000 nM | – | 1
E57 [9], 4.1 nM | 0.467 | –
E57 [9], 12.3 nM | 0.582 | –
E57 [9], 37 nM | 0.373 | –
E57 [9], 111.1 nM | 0.789 | –
E57 [9], 333.3 nM | 0.553 | –
E57 [9], 1000 nM | 0.494 | –
E57 [9], 3000 nM | 1.79 | –
FT3469 [3], 4.1 nM | – | 0.961
FT3469 [3], 12.3 nM | – | 0.979
FT3469 [3], 37 nM | – | 1.02
FT3469 [3], 111.1 nM | – | 1.05
FT3469 [3], 333.3 nM | – | 0.978
FT3469 [3], 1000 nM | – | 1.1
FT3469 [3], 3000 nM | – | 0.933
FT3469 [10], 4.1 nM | 1.79 | –
FT3469 [10], 12.3 nM | 0.53 | –
FT3469 [10], 37 nM | 0.88 | –
FT3469 [10], 111.1 nM | 0.534 | –
FT3469 [10], 333.3 nM | 0.669 | –
FT3469 [10], 1000 nM | 0.43 | –
FT3469 [10], 3000 nM | 1.12 | –
